Where a name gives a salt, the structure may show the parent alone. Read-outs that look alike come from different tables or passages of the source. Each block holds one compound with its values, some of them ahead of it.
Key:
human 5-HT1A receptors = target: T1, human 5-HT1A receptors (Homo sapiens, UniProt P08908); test: [3H] 8-OHDPAT displacement from 5-HT1A receptor in transfected CHO cells; type: binding
T1 construct: expressed in transfected cells; host or cells: CHO cells
T1 sequence (P08908 1-422): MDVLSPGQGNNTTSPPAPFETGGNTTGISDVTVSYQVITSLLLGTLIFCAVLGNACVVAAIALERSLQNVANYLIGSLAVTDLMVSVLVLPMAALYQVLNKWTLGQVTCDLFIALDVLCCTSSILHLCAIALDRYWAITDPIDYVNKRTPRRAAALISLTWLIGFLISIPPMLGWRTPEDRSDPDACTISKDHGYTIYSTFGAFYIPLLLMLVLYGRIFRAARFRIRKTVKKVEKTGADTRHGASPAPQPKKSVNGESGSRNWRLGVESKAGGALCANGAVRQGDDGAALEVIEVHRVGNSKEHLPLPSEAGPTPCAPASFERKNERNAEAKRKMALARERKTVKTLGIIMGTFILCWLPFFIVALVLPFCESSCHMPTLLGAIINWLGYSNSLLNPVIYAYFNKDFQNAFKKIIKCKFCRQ
Description: High affinity for the serotonin 5-HT1A receptor was established by testing the claimed compound's ability to displace [^3H] 8-OHDPAT (dipropylaminotetralin) from the 5-HT1A serotonin receptor following a modification of the procedure of Hall et al., J. Neurochem. 44, 1685 (1985) which utilizes CHO cells stably transfected with human 5-HT1A receptors.

serotonin transporter = target: T2, serotonin transporter (Rattus norvegicus, UniProt P31652); test: 3H-paroxetine displacement from rat frontal cortical membranes (serotonin transporter affinity); type: binding
T2 construct: displace ^3H-paroxetine from male rat frontal cortical membranes; from tissue; host or cells: male rat frontal cortex membranes

[1] = target: T3, cloned human 5-HT1A receptors (Homo sapiens, UniProt P08908); test: 35S-GTPγS binding assay for antagonist activity at 5-HT1A receptors; type: biochemical; details: membranes with cloned human 5-HT1A receptors, reversal of agonist 8-OHDPAT; for Emax: read-out: 5-HT1A Function (Imax), maximum inhibitory effect; for IC50: read-out: 5-HT1A Function IC50
T3 construct: expressed in transfected cells
T3 sequence (P08908 1-422): T1 sequence (P08908 1-422)
Description: Antagonist activity at 5-HT1A receptors was established by using a ^35S-GTPγS binding assay similar to that used by Lazareno and Birdsall (Br. J. Pharmacol. 109: 1120, 1993), in which the test compound's ability to affect the binding of ^35S-GTPγS to membranes containing cloned human 5-HT1A receptors was determined. Agonists produce an increase in binding whereas antagonists produce no increase but rather reverse the effects of the standard agonist 8-OHDPAT. The test compound's maximum inhibitory effect is represented as the Imax, while its potency is defined by the IC50.

[2] = displacement of 3H-paroxetine, male rat frontal cortical membranes, read-out: 5-HT Transporter Affinity KI
[3] = displacement of [3H] 8-OHDPAT, CHO cells stably transfected with human 5-HT1A receptors, read-out: 5-HT1A Receptor Affinity KI

T2 sequence (P31652 whole entry): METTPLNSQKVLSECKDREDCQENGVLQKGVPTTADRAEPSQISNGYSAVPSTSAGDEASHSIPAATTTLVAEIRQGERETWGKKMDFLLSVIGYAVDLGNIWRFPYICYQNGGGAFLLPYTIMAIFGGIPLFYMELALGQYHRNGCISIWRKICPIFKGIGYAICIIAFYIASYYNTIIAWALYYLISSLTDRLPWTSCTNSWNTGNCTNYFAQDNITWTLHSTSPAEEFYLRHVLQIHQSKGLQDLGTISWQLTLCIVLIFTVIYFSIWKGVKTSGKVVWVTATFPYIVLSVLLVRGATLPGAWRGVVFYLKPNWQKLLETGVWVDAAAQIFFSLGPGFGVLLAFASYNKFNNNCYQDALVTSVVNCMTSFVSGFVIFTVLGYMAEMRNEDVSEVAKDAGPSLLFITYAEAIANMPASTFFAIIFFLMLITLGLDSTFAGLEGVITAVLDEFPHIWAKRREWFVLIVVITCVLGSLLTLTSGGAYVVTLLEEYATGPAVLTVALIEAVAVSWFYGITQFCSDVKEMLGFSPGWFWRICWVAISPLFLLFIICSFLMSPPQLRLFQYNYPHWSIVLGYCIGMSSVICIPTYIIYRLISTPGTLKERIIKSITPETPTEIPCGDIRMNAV

Structure (SMILES): Cc1ccc2c3c(ccc2n1)OCC(CN1CC=C(c2csc4ccccc24)CC1)O3 (stereo not shown) (as salt: oxalate) [Example 1, 2-(4-Benzo[b]thiophen-3-yl-3,6-dihydro-2H-pyridin-1-ylmethyl)-8-methyl-2,3-dihydro-[1,4]dioxino[2,3-f]quinoline]
melting point: 129 to 133 °C

Structure (SMILES): Cc1ccc2c3c(ccc2n1)OCC(CN1CC=C(c2cccc4ccsc24)CC1)O3 (stereo not shown) [Example 10, 2-(4-Benzo[b]thiophen-7-yl-3,6-dihydro-2H-pyridin-1-ylmethyl)-8-methyl-2,3-dihydro-[1,4]dioxino[2,3-f]quinoline]
Ki (human 5-HT1A receptors): 34.9 nM
Ki (serotonin transporter): 10 nM
Emax [1]: 40.5%
IC50 [1]: 392 nM

Structure (SMILES): Cc1ccc2c3c(ccc2n1)OCC(CN1CC=C(c2cccc4ccsc24)CC1)O3 (stereo not shown) (as salt: oxalate) [Example 10, 2-(4-Benzo[b]thiophen-7-yl-3,6-dihydro-2H-pyridin-1-ylmethyl)-8-methyl-2,3-dihydro-[1,4]dioxino[2,3-f]quinoline]
melting point: 183 to 185 °C

Structure (SMILES): C1=C(c2csc3ccccc23)CCN(CC2COc3ccc4[nH]ccc4c3O2)C1 (stereo not shown) [Example 7, 2-(4-Benzo[b]thiophen-3-yl-3,6-dihydro-2H-pyridin-1-ylmethyl)-2,3-dihydro-7H-[1,4]dioxino[2,3-e]indole]
Ki (human 5-HT1A receptors): 4.74 nM
Ki (serotonin transporter): 2.48 nM
Emax [1]: 100%
IC50 [1]: 25.8 nM

Structure (SMILES): Cc1ccc2c3c(ccc2n1)OCC(CN1CC=C(c2cc4ccccc4o2)CC1)O3 (stereo not shown) [Example 11, 2-(4-Benzofuran-2-yl-3,6-dihydro-2H-pyridin-1-ylmethyl)-8-methyl-2,3-dihydro-[1,4]dioxino[2,3-f]quinoline]
Ki (human 5-HT1A receptors): 15.7 nM
melting point: 149 to 150 °C
Ki (serotonin transporter; [2]): 213 nM
Emax [1]: 70%
IC50 [1]: 15500 nM

Ki (human 5-HT1A receptors; [3]): 19.8 nM
melting point: 128 to 130 °C
Ki (serotonin transporter; [2]): 17 nM
Emax [1]: 100%
IC50 [1]: 167 nM
Structure (SMILES): Cc1ccc2c3c(ccc2n1)OCC(CN1CCC(c2nc4ccccc4o2)CC1)O3 (stereo not shown) [Example 14, 2-(4-Benzoxazol-2-yl-piperidin-1-ylmethyl)-8-methyl-2,3-dihydro-[1,4]dioxino[2,3-f]quinoline]

Structure (SMILES): Cc1ccc2c3c(ccc2n1)OCC(CN1CC=C(c2cc4ccccc4s2)CC1)O3 (stereo not shown) [Example 2, 2-(4-Benzo[b]thiophen-2-yl-3,6-dihydro-2H-pyridin-1-ylmethyl)-8-methyl-2,3-dihydro-[1,4]dioxino[2,3-f]quinoline]
Ki (human 5-HT1A receptors; [3]): 21.6 nM
melting point: 174 to 176 °C
Ki (serotonin transporter): 78 nM

Structure (SMILES): Cc1nc2ccc3c(c2o1)OC(CN1CC=C(c2csc4ccccc24)CC1)CO3 (stereo not shown) [Example 9, 8-(4-Benzo[b]thiophen-3-yl-3,6-dihydro-2H-pyridin-1-ylmethyl)-2-methyl-7,8-dihydro-[1,4]dioxino[2,3-g][1,3]benzoxazole]
Ki (human 5-HT1A receptors): 20.2 nM
Ki (serotonin transporter): 13 nM
Emax [1]: 50%
IC50 [1]: 1980 nM

Structure (SMILES): Fc1ccc2scc(C3=CCN(CC4COc5ccc6ncccc6c5O4)CC3)c2c1 (stereo not shown) [Example 5, 2-[4-(5-Fluoro-benzo[b]thiophen-3-yl)-3,6-dihydro-2H-pyridin-1-ylmethyl]-2,3-dihydro-[1,4]dioxino[2,3-f]quinoline]
Ki (human 5-HT1A receptors): 23.4 nM
Ki (serotonin transporter): 35 nM
Emax [1]: 30%
IC50 [1]: 1000 nM

Structure (SMILES): Cc1ccc2c3c(ccc2n1)OCC(CN1CC=C(c2csc4ccc(F)cc24)CC1)O3 (stereo not shown) (as salt: oxalate) [Example 3, 2-[4-(5-Fluoro-benzo[b]thiophen-3-yl)-3,6-dihydro-2H-pyridin-1-ylmethyl]-8-methyl-2,3-dihydro-[1,4]dioxino[2,3-f]quinoline]
melting point: 197 to 201 °C

Ki (human 5-HT1A receptors; [3]): 8.67 nM
melting point: 103 to 104 °C
Ki (serotonin transporter; [2]): 109 nM
Emax [1]: 100%
IC50 [1]: 590 nM
Structure (SMILES): Cc1ccc2c3c(ccc2n1)OCC(CN1CCC(c2cc4ccccc4o2)CC1)O3 (stereo not shown) [Example 12, 2-(4-Benzofuran-2-yl-piperidin-1-ylmethyl)-8-methyl-2,3-dihydro-[1,4]dioxino[2,3-f]quinoline]

Structure (SMILES): Cc1ccc2c3c(ccc2n1)OCC(CN1CC=C(c2csc4ccc(F)cc24)CC1)O3 (stereo not shown) [Example 3, 2-[4-(5-Fluoro-benzo[b]thiophen-3-yl)-3,6-dihydro-2H-pyridin-1-ylmethyl]-8-methyl-2,3-dihydro-[1,4]dioxino[2,3-f]quinoline]
Ki (human 5-HT1A receptors): 15.9 nM
Ki (serotonin transporter): 18.5 nM
Emax [1]: 87.4%
IC50 [1]: 437 nM

Structure (SMILES): C1=C(c2csc3ccccc23)CCN(CC2COc3ccc4ncccc4c3O2)C1 (stereo not shown) (as salt: oxalate) [Example 6, 2-(4-Benzo[b]thiophen-3-yl-3,6-dihydro-2H-pyridin-1-ylmethyl)-2,3-dihydro-[1,4]dioxino[2,3-f]quinoline]
melting point: 178 to 180 °C

Structure (SMILES): Cc1ccc2c3c(ccc2n1)OCC(CN1CC=C(c2csc4ccccc24)CC1)O3 (stereo not shown) [Example 1, 2-(4-Benzo[b]thiophen-3-yl-3,6-dihydro-2H-pyridin-1-ylmethyl)-8-methyl-2,3-dihydro-[1,4]dioxino[2,3-f]quinoline]
Ki (human 5-HT1A receptors): 4.89 nM
Ki (serotonin transporter): 9.25 nM
Emax [1]: 100%
IC50 [1]: 499 nM

Structure (SMILES): Cc1ccc2c3c(ccc2n1)OCC(CN1CC=C(c2csc4ccc(Cl)cc24)CC1)O3 (stereo not shown) [Example 13, 2-[4-(5-Chloro-benzo[b]thiophen-3-yl)-3,6-dihydro-2H-pyridin-1-ylmethyl]-8-methyl-2,3-dihydro-[1,4]dioxino[2,3-f]quinoline]
Ki (human 5-HT1A receptors; [3]): 135 nM
Ki (serotonin transporter): 94 nM
Emax [1]: 100%
IC50 [1]: 2520 nM

Structure (SMILES): C1=C(c2csc3ccccc23)CCN(CC2COc3ccc4ncccc4c3O2)C1 (stereo not shown) [Example 6, 2-(4-Benzo[b]thiophen-3-yl-3,6-dihydro-2H-pyridin-1-ylmethyl)-2,3-dihydro-[1,4]dioxino[2,3-f]quinoline]
Ki (human 5-HT1A receptors): 14.5 nM
Ki (serotonin transporter): 8.5 nM
Emax [1]: 100%
IC50 [1]: 146 nM

Structure (SMILES): Cc1nc2ccc3c(c2o1)OC(CN1CC=C(c2csc4ccccc24)CC1)CO3 (stereo not shown) (as salt: oxalate) [Example 9, 8-(4-Benzo[b]thiophen-3-yl-3,6-dihydro-2H-pyridin-1-ylmethyl)-2-methyl-7,8-dihydro-[1,4]dioxino[2,3-g][1,3]benzoxazole]
melting point: 126 to 129 °C

Structure (SMILES): COc1cccc2c(C3=CCN(C[C@H]4COc5ccc6nc(C)ccc6c5O4)CC3)coc12 [Example 4, 2-[4-(7-Methoxy-benzofuran-3-yl)-3,6-dihydro-2H-pyridin-1-ylmethyl]-8-methyl-2,3-dihydro-[1,4]dioxino[2,3-f]guinoline]
Ki (human 5-HT1A receptors): 2.66 nM
Ki (serotonin transporter): 70 nM
Emax [1]: 91%
IC50 [1]: 167 nM

Structure (SMILES): Fc1ccc2scc(C3=CCN(CC4COc5ccc6ncccc6c5O4)CC3)c2c1 (stereo not shown) (as salt: oxalate) [Example 5, 2-[4-(5-Fluoro-benzo[b]thiophen-3-yl)-3,6-dihydro-2H-pyridin-1-ylmethyl]-2,3-dihydro-[1,4]dioxino[2,3-f]quinoline]
melting point: 183 to 185 °C

Structure (SMILES): Fc1ccc2scc(C3=CCN(C[C@H]4COc5ccc6[nH]ccc6c5O4)CC3)c2c1 [Example 8, 2-[4-(5-Fluoro-benzo[b]thiophen-3-yl)-3,6-dihydro-2H-pyridin-1-ylmethyl]-2,3-m-dihydro-7H-[1,4]dioxino[2,3-e]indole]
Ki (human 5-HT1A receptors): 3.45 nM
Ki (serotonin transporter): 33 nM
Emax [1]: 100%
IC50 [1]: 147 nM

From patent US7479500B2, “Antidepressant piperidine derivatives of heterocyclefused benzodioxans” (Wyeth, priority 2002, dated 2009)
